IC50, inhibition of growth and GI50 data for 16 molecules are collected here from ChEMBL document CHEMBL4411258, “Novel natural compounds from endophytic fungi with anticancer activity” (Eur J Med Chem, 2018).

The term IC50 denotes the concentration that inhibits the measured activity by half. The GI50 is the concentration that inhibits growth by half.

Each structure is given as a SMILES string. Converted amounts (≈) assume the structure as drawn.

Data set [1] has as its system HCT-116. The experiment in a line: Cytotoxicity against human HCT116 cells. Format: functional, cell-based.
For data set [2], the system named is HeLa. The experiment in a line: Cytotoxicity against human HeLa cells. Type of data set: functional, cell-based.
Data set [3] concerns A549. The experiment in a line: Cytotoxicity against human A549 cells. Format: functional, cell-based.
Data set [4] concerns U-251. Description: Cytotoxicity against human U251 cells by MTT assay. Type of data set: functional, cell-based. (In general: Formazan colour is commonly taken as a measure of viable cells.)
Data set [5] concerns MCF7. The experiment in a line: Cytotoxicity against human MCF7 cells by MTT assay. Type of data set: functional, cell-based.
The test system of data set [6] is SK-LU-1. Description: Cytotoxicity against human SKLU1 cells by MTT assay. Type of data set: functional, cell-based.
The test system of data set [7] is HCT-15. The experiment in a line: Cytotoxicity against human HCT15 cells by MTT assay. Format: functional, cell-based.
Data set [8] relates to PC-3. The experiment in a line: Cytotoxicity against human PC3 cells by MTT assay. Type of data set: functional, cell-based.
Data set [9] concerns MCF7. The experiment in a line: Cytotoxicity against human MCF7 cells by resazurin microplate assay. Type of data set: functional, cell-based. On the technique in general: The colour change of resazurin is a common sign of viable cells or microbes.
Data set [10] concerns NCI-H187. The experiment in a line: Cytotoxicity against human NCI-H187 cells by resazurin microplate assay. Type of data set: functional, cell-based.
A short description of data set [11]: Cytotoxicity against human KATO III cells after 72 hrs by MTT assay. Format: functional, cell-based.
Data set [12] relates to Vero. The experiment in a line: Cytotoxicity against African green monkey Vero cells by resazurin microplate assay. Type of data set: cell-based. To be noted: Chlorocebus sabaeus.
For data set [13], the system named is HeLa. The experiment in a line: Cytotoxicity against human HeLa cells after 48 hrs by MTT assay. Type of data set: functional, cell-based.
Data set [14] relates to Bel-7402. Description: Cytotoxicity against human Bel7402 cells after 48 hrs by MTT assay. Format: functional, cell-based. To be noted: Bel-7402, 48 h.
Data set [15] has as its system SMMC-7721. Description: Cytotoxicity against human SMMC7721 cells by CCK8 assay. Format: functional, cell-based.
Data set [16] relates to MCF7. Description: Cytotoxicity against human MCF7 cells by CCK8 assay. Type of data set: functional, cell-based.
The test system of data set [17] is HL-60. The experiment in a line: Cytotoxicity against human HL60 cells by CCK8 assay. Format: functional, cell-based.
Data set [18] has as its system A549. The experiment in a line: Cytotoxicity against human A549 cells by CCK8 assay. Type of data set: functional, cell-based.
The test system of data set [19] is SW480. The experiment in a line: Cytotoxicity against human SW480 cells by CCK8 assay. Type of data set: functional, cell-based.
Data set [20] concerns SK-OV-3. The experiment in a line: Cytotoxicity against human SKOV3 cells after 48 hrs by neutral red dye based assay. Type of data set: functional, cell-based. The following applies: SK-OV-3, 48 h.
In data set [21] the test system is KB. Description: Cytotoxicity against human KB cells after 48 hrs by neutral red dye based assay. Format: functional, cell-based.
Data set [22] relates to BT-549. The experiment in a line: Cytotoxicity against human BT549 cells after 48 hrs by neutral red dye based assay. Type of data set: functional, cell-based. The following applies: BT-549, 48 h.
Data set [23] has as its system L5178Y. Description: Cytotoxicity against mouse L5178Y cells by MTT assay. Type of data set: functional, cell-based.
For data set [24], the system named is A2780. The experiment in a line: Cytotoxicity against human cisplatin-sensitive A2780 cells by MTT assay. Type of data set: functional, cell-based.
For data set [25], the system named is SMMC-7721. Description: Cytotoxicity against human SMMC7721 cells assessed as inhibition of cell growth at 40 uM by MTS assay. Type of data set: functional. The following applies: read-out: GI.
Data set [26] deals with A549. The experiment in a line: Cytotoxicity against human A549 cells assessed as inhibition of cell growth at 40 uM by MTS assay. Type of data set: functional. The following applies: read-out: GI.
Data set [27] concerns SW480. Description: Cytotoxicity against human SW480 cells assessed as inhibition of cell growth at 40 uM by MTS assay. Format: functional. The following applies: read-out: GI.
The test system of data set [28] is MCF7. Description: Cytotoxicity against human MCF7 cells assessed as inhibition of cell growth at 40 uM by MTS assay. Format: functional. To be noted: read-out: GI.
For data set [29], the system named is HL-60. Description: Cytotoxicity against human HL60 cells assessed as inhibition of cell growth at 40 uM by MTS assay. Format: functional. To be noted: read-out: GI.
The subject of data set [30] is HeLa. The experiment in a line: Cytotoxicity against human HeLa cells after 48 hrs by MTS assay. Format: functional, cell-based.
For data set [31], the system named is T-24. Description: Cytotoxicity against human T24 cells after 48 hrs by MTS assay. Type of data set: functional, cell-based. The following applies: T-24, 48 h.
Data set [32] relates to MCF7. The experiment in a line: Cytotoxicity against human MCF7 cells after 48 hrs by MTS assay. Format: functional, cell-based. The following applies: MCF7, 48 h.
Data set [33] relates to A549. Description: Cytotoxicity against human A549 cells after 48 hrs by MTS assay. Type of data set: functional, cell-based. To be noted: A549, 48 h.
Data set [34] has as its system K562. Description: Antiproliferative activity against human K562 assessed as growth inhibition. Format: functional.
Data set [35] is described as follows: Antiproliferative activity against HUVEC assessed as growth inhibition. Format: cell-based. To be noted: human, HUVEC cells.
Data set [36] concerns A549. Description: Cytotoxicity against human A549 cells by MTT assay. Type of data set: functional, cell-based.
Data set [37] concerns HuCC-A1. Description: Cytotoxicity against human HuCCa1 cells by MTT assay. Type of data set: functional, cell-based.
The test system of data set [38] is MOLT-3. Description: Cytotoxicity against human MOLT3 cells by XTT assay. Type of data set: functional, cell-based.
Data set [39] has as its system KB. The experiment in a line: Cytotoxicity against human KB cells by resazurin microplate assay. Format: functional, cell-based.
In data set [40] the test system is A549. The experiment in a line: Cytotoxicity against human A549 cells after 48 hrs by MTT assay. Type of data set: functional, cell-based. To be noted: a549.
For data set [41], the system named is MCF7. The experiment in a line: Cytotoxicity against human MCF7 cells after 48 hrs by MTT assay. To be noted: mcf7. Format: functional, cell-based.
The test system of data set [42] is SMMC-7721. The experiment in a line: Cytotoxicity against human SMMC7721 cells after 48 hrs by MTT assay. The following applies: smmc-7721. Type of data set: functional, cell-based.
Data set [43] relates to HL-60. Description: Cytotoxicity against human HL60 cells after 48 hrs by MTT assay. Format: functional, cell-based. The following applies: HL-60, 48 h.

Take `COC(=O)CC[C@@H](C(=O)OC/C=C(\C)CC/C=C(\C)CCC=C(C)C)N1Cc2c(cc(O)c(OC/C=C(\C)CC/C=C(\C)CCC=C(C)C)c2O)C1=O`: the values for the IC50 in [1], in [2] and in data set [3] were 33 µM, 4.77 µM and 12 µM, respectively.
Consider `COC(=O)[C@@]12Oc3c(c(O)cc4c3[C@@H]3CC[C@]5(C4)C(=C(O)c4c(O)cc(C)cc4[C@@H]5O)C3=O)C(=O)C1=C(O)C=C[C@H]2O`, for which the IC50 came out at 5.32 µM in [4]; 7.93 µM in data set [5]; 1.16 µM in data set [6]; 10.3 µM in data set [7]; 8.62 µM in data set [8].
As for `CC(=O)O[C@H]1C=CC(=O)O[C@H]1[C@H]1[C@H]2C=CC=C[C@](O)(O2)[C@H]1C`, the half-maximal inhibitory concentration (IC50) in data set [9], in [10], in data set [11] and in data set [12] was 1.95 to 40.2 µg/mL (≈ 6.37 to 131 µM) throughout.
As to `COC(=O)[C@]1(OC)CCC(=O)N1Nc1ccc(OC)cc1OC`, the IC50 in data set [13] amounted to 15.5 µM; in data set [14], 8.1 µM.
As to `C=C1[C@@H](C)[C@H]2[C@H](Cc3ccccc3)NC(=O)[C@]23c2ccc(o2)CCC[C@@H](C)C/C=C/[C@H]3[C@@H]1O`, the half-inhibitory concentration (IC50) in data set [15], in [16], in [17], in [18] and in [19] was 7.7 to 15.8 µM in each case.
With `C=C1[C@@H](C)[C@H]2[C@H](Cc3ccccc3)NC(=O)[C@]23C(=O)/C=C/C(=O)CCC[C@@H](C)C/C=C/[C@H]3[C@@H]1O`, the IC50 in data set [15], in data set [16], in data set [17], in data set [18] and in data set [19] was 7.7 to 15.8 µM in each case.
Take `C=C(CC[C@@H](C)[C@H]1CC=C2C3=C([C@@H](O)[C@H](OC(C)=O)[C@@]21C)[C@@]1(C)C[C@@H](O)[C@H](OC(=O)c2ccc(O)cc2)C(C)(C)[C@@H]1CC3)C(C)C`: the IC50 in data set [20] was found to be 3.01 µM; in data set [21], 2.54 µM; in [22], 2.46 µM.
As to `C=C1[C@@H](C)[C@H]2[C@H](Cc3ccc(O)cc3)NC(=O)[C@]23[C@H](O)/C=C/[C@@H](C)C[C@@H](C)C/C=C/[C@H]3[C@@H]1O`, the IC50 turned out to be 2.55 µM in data set [23] and 6.97 µM in data set [24].
Take `C=C1[C@@H](C)[C@H]2[C@H](Cc3c[nH]c4ccccc34)NC(=O)[C@@]2(C(=O)CCC(=O)OC)[C@@H](/C=C/CC(C)/C=C(\C)C=O)[C@@H]1O` (some centres not stated): the inhibition of growth at 40 µM in data set [25] amounted to 51%; in [26], 67%; in [27], 61%; in data set [28] it was 58%; in data set [29], 96%.
Take `COC(=O)c1cc(OC)cc(O)c1C(=O)c1c(O)cc(C)c2c1O[C@@](C)(CC(=O)[C@@]13C[C@H](O)[C@@H]4O[C@]4(CC=C(C)C)[C@@H]1O3)C2`: the IC50 in [30] amounted to 44.3 µM; in data set [31], 39.3 µM; in data set [32], 38.3 µM; in data set [33], 35.3 µM.
With `O=C1c2cccc(O)c2[C@H]2C[C@@H]1c1ccc3cccc(O)c3c1O2`, the GI50 in data set [34] came out at 85.5 µM; in data set [35], 98.4 µM.
As to `COCC1=C2C=C(C)OC=C2[C@H](O)[C@@](C)(O)C1=O`, the IC50 was found to be 46.5 µg/mL (≈ 184 µM) in data set [36], 48.1 µg/mL (≈ 191 µM) in [37] and 17.4 µg/mL (≈ 69 µM) in data set [38].
With `C=C(CC[C@@H](C)[C@H]1CC=C2C3=C([C@@H](O)[C@H](OC(C)=O)[C@@]21C)[C@@]1(C)C[C@@H](OC(C)=O)[C@H](OC(C)=O)C(C)(C)[C@@H]1CC3)C(C)C`, the IC50 came to 1.32 µM in data set [20], 0.18 µM in data set [21] and 1.82 µM in [22].
As for `COc1cc2oc(C)cc(=O)c2c(O)c1CC(C)c1ccco1` (configuration not stated), the IC50 was 43 µg/mL (≈ 137 µM) in [39] and 18 µg/mL (≈ 57.3 µM) in [10].
Take `COc1cc(=O)oc2c1CO[C@@](C)(OC)[C@H]2C`: the IC50 in data set [40] was found to be 17.5 µM; in data set [41], 17.7 µM; in data set [42] it was 35.1 µM.
With `COc1ccc(O)c2c(=O)oc3cc(O)cc(C)c3c12`, the IC50 in [43] was 85 µM.
